The subject of the assay is gp96 and αL-HA in RAW264.7 cells. As to the kind of experiment: Tunicamycin treatment of RAW264.7 cells, IP and immunoblot. As to conditions: 5 μg/ml Tunicamycin. Format: cell-based. In general terms: In western blotting, separated proteins are transferred to a membrane and probed.

For Tunicamycin, where the note is “12 hours (FIG. 1E)”, the “binding of immature ER αL-HA to gp96” value was “reduction in binding to gp96” and the “dimerization of matured cell surface αL-HA with β2-myc” value is “no change”. For the same substance, for the setting “12 hours, via unfolded protein response”, the gp96 expression entry was “upregulation”.
